From US10100064B2, “Purine inhibitors of human phosphatidylinositol 3-kinase delta” (Merck Sharp & Dohme Corp., priority 2014, dated 2018) come the findings set out here.

Bounds are passed on as bounds.

One experiment addresses T1, PI3Kdelta (Homo sapiens, UniProt O00329).
T1 construct: purchased Upstate; Millipore 14-604
The experiment is described as follows: HTRF PI3K biochemical assay, delta isoform. As to conditions: 0.3 nM enzyme, 100 uM ATP, 5 uM PIP2, form screened (Neutral or TFA salt) given per compound. The method in brief:
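PI3Kδ at 0.3 nM with 100 uM ATP and 5 uM PIP2, 10-point 3-fold dilutions, 15 min enzyme–compound pre-incubation, then 1 h reaction at room temperature. PIP3 formation detected by HTRF displacement of biotin-PIP3 from GST-GRP1-PH (665/620 nm ratio). IC50 corrected using a PIP3 standard curve.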
For orientation: Time-resolved FRET reads energy transfer from a long-lived donor to a nearby acceptor.

Another experiment deals with T2, PI3Kalpha (Homo sapiens, UniProt P42336).
T2 construct: purchased Upstate; Millipore 14-602
T2 sequence (P42336 whole entry): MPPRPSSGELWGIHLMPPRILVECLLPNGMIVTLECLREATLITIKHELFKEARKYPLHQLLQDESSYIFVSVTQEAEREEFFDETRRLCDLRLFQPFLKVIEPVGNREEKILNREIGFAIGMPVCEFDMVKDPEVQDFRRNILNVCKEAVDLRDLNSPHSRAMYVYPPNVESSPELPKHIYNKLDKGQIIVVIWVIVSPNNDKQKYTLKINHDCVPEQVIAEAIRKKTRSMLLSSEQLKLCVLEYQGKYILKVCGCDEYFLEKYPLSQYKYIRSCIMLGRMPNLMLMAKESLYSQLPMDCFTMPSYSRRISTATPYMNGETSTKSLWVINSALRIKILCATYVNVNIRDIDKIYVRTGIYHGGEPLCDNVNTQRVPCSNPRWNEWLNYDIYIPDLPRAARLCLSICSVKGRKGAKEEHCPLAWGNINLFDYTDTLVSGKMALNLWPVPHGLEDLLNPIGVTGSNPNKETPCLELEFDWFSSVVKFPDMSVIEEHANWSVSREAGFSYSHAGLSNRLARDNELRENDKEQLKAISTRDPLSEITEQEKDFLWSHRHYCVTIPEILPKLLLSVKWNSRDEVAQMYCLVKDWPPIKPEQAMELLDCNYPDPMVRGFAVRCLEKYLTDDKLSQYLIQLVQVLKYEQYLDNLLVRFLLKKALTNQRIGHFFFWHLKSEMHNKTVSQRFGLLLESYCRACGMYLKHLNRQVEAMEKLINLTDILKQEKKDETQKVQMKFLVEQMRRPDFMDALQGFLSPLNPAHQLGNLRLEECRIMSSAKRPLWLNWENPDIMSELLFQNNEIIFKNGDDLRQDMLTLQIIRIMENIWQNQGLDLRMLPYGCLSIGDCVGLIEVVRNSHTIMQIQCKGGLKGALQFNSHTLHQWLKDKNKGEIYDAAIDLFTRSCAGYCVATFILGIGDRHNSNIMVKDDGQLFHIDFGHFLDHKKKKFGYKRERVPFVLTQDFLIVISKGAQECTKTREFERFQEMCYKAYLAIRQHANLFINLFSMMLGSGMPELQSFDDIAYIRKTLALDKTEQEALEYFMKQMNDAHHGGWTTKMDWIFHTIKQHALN
T2 sequence (P27986 whole entry partner): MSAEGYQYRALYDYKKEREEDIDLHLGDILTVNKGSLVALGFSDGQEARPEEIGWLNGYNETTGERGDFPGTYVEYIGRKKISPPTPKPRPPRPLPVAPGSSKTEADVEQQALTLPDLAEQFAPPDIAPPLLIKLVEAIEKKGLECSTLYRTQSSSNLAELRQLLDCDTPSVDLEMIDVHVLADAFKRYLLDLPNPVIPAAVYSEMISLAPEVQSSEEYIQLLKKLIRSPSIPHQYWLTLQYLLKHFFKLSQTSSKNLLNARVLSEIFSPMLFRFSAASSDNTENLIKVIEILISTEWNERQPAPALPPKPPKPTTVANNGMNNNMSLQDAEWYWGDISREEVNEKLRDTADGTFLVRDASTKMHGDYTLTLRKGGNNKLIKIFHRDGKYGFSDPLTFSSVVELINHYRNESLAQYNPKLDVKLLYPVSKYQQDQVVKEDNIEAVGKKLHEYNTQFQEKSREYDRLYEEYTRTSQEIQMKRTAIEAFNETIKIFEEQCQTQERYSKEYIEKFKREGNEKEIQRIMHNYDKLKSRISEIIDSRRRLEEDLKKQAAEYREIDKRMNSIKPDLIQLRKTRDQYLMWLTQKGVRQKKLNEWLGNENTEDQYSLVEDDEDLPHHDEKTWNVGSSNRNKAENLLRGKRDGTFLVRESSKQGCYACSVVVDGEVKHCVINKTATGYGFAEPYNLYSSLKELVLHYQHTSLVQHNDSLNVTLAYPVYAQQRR
Put plainly: HTRF PI3K biochemical assay, alpha isoform (selectivity versus delta). Particulars: relative ratio PI3K-alpha IC50 value / PI3K-delta IC50 value. An outline of the steps: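 Recombinant PI3Kα (0.5 nM) pre-incubated 15 min with compound, then reacted 1 h at room temperature with 5 μM PIP2 and 100 μM ATP. After EDTA stop, PIP3 measured by HTRF displacement of biotin-PIP3 from GST-GRP1 PH domain (665/620 nm). 10-point dose response; IC50 corrected using a PIP3 standard curve.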

T1 sequence (O00329 whole entry): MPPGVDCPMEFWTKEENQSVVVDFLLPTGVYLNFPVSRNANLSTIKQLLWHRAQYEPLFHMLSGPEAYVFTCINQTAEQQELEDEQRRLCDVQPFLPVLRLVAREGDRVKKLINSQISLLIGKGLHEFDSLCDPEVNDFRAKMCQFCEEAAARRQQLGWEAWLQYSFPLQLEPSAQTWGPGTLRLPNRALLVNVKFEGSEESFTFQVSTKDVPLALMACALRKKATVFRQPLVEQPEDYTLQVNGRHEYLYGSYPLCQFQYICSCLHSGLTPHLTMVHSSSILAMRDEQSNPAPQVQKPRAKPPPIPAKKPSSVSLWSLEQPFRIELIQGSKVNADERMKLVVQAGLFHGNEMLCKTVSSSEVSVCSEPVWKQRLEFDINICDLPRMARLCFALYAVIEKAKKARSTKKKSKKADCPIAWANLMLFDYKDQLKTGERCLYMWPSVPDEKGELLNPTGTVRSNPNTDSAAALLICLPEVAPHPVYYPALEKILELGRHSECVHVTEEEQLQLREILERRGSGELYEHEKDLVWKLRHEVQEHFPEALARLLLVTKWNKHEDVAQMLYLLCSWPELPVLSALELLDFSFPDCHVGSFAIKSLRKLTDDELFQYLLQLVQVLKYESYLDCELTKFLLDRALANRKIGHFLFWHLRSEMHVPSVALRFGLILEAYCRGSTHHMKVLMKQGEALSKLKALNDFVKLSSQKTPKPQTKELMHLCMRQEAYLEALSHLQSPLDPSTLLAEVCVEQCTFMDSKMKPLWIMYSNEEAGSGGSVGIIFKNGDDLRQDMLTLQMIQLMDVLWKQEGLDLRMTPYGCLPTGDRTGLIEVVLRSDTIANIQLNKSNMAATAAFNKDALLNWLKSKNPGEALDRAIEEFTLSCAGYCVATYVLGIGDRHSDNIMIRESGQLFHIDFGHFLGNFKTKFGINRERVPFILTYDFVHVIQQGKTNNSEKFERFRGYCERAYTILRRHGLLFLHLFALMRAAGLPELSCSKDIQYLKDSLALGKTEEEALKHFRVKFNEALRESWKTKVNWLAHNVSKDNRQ
T1 sequence (P27986 whole entry partner): as the sequence (P27986 whole entry partner) above

What is called IC50 is the concentration that gives 50% inhibition. Consider `CCn1c(-c2ccc(C(F)(F)F)cc2)nc2c(NC3CCc4[nH]nc(C(C)C)c4C3)ncnc21` (single isomer, unassigned) [Compound 2-7, (S or R)-9-ethyl-N-[3-(1-methylethyl)-4,5,6,7-tetrahydro-1H-indazol-5-yl]-8-[4-(trifluoromethyl)phenyl]-9H-purin-6-amine], for which, at PI3Kdelta, the 50% inhibitory concentration (IC50) is 1.7 nM. The “Selectivity versus PI3Kalpha” value on PI3Kalpha is given as >10.

On to `CCn1c(-c2ccc(C(F)(F)F)cc2)nc2c(NC3CCc4[nH]nc(C(C)C)c4C3)ncnc21` (single isomer, unassigned) [Compound 2-8, (S or R)-9-ethyl-N-[3-(1-methylethyl)-4,5,6,7-tetrahydro-1H-indazol-5-yl]-8-[4-(trifluoromethyl)phenyl]-9H-purin-6-amine], for which the IC50 at PI3Kdelta was 210 nM. Further, on PI3Kalpha, the “Selectivity versus PI3Kalpha” value is recorded as >10.

As to `CCCn1nc(C(C)C)c2c1CCC(Nc1ncnc3c1nc(-c1cnc(C)nc1)n3CC)C2` (single isomer, unassigned) [Compound 2-10, (S or R)-9-ethyl-N-[3-(1-methylethyl)-1-propyl-4,5,6,7-tetrahydro-1H-indazol-5-yl]-8-(2-methylpyrimidin-5-yl)-9H-purin-6-amine], on PI3Kdelta, the IC50 is 6.1 nM. Also, the “Selectivity versus PI3Kalpha” value on PI3Kalpha is recorded as >10.

`CCn1c(-c2cnc(C)nc2)nc2c(NC3CCc4c(c(C(C)C)nn4CCO)C3)ncnc21` (single isomer, unassigned) [Compound 2-11, (S or R)-2-[5-{[9-ethyl-8-(2-methylpyrimidin-5-yl)-9H-purin-6-yl]amino}-3-(1-methylethyl)-4,5,6,7-tetrahydro-1H-indazol-1-yl]ethanol]: the concentration for half-maximal inhibition (IC50) at PI3Kdelta was found to be 2.1 nM. Moreover, at PI3Kalpha, the “Selectivity versus PI3Kalpha” value is >10.

As for `CCn1c(-c2cnc(C)nc2)nc2c(NC3CCc4c(c(C(C)C)nn4C(=O)OC)C3)ncnc21` (single isomer, unassigned) [Compound 2-19, (S or R)-methyl 5-{[9-ethyl-8-(2-methylpyrimidin-5-yl)-9H-purin-6-yl]amino}-3-(1-methylethyl)-4,5,6,7-tetrahydro-1H-indazole-1-carboxylate], the IC50 at PI3Kdelta turned out to be 1 nM. For the same compound, at PI3Kalpha, the “Selectivity versus PI3Kalpha” value is given as >10.

For the compound `CCn1c(-c2cnc(C)nc2)nc2c(NC3CCc4nn(C)c(C(C)C)c4C3)ncnc21` (single isomer, unassigned) [Compound 2-24, (S or R)-9-ethyl-N-[(5S)-2-methyl-3-(1-methylethyl)-4,5,6,7-tetrahydro-2H-indazol-5-yl]-8-(2-methylpyrimidin-5-yl)-9H-purin-6-amine], the IC50 on PI3Kdelta turned out to be 41 nM. Moreover, at PI3Kalpha, the “Selectivity versus PI3Kalpha” value is given as >10.

Take `CCn1c(-c2cnc(C)nc2)nc2c(NC3CCc4c(c(C(C)C)nn4C)C3)ncnc21` (single isomer, unassigned) [Compound 2-25, (S or R)-9-ethyl-N-[(5S)-1-methyl-3-(1-methylethyl)-4,5,6,7-tetrahydro-1H-indazol-5-yl]-8-(2-methylpyrimidin-5-yl)-9H-purin-6-amine]: at PI3Kdelta, the IC50 worked out at 14 nM. The “Selectivity versus PI3Kalpha” value on PI3Kalpha is reported as >10.

With `CCn1c(-c2cnc(C)nc2)nc2c(NC3CCc4cnc(C5CC5)n4C3)ncnc21` (single isomer, unassigned) [Compound 3-1, (S or R)-N-[3-cyclopropyl-5,6,7,8-tetrahydroimidazo[1,5-a]pyridin-6-yl]-9-ethyl-8-(2-methylpyrimidin-5-yl)-9H-purin-6-amine], the IC50 at PI3Kdelta was 11 nM. Besides, the “Selectivity versus PI3Kalpha” value on PI3Kalpha is listed as >10.

In the case of `CCn1c(-c2cnc(C)nc2)nc2c(NC3CCc4cnc(C(C)C)n4C3)ncnc21` (single isomer, unassigned) [Compound 3-2, (S or R)-9-ethyl-N-[3-(1-methylethyl)-5,6,7,8-tetrahydroimidazo[1,5-a]pyridin-6-yl)-8-(2-methylpyrimidin-5-yl)-9H-purin-6-amine], at PI3Kdelta, the IC50 is 5.2 nM. Moreover, on PI3Kalpha, the “Selectivity versus PI3Kalpha” value was >10.

Turning to `CCn1c(-c2cnc(C)nc2)nc2c(NC3CCc4ncc(C5CC5)n4C3)ncnc21` (single isomer, unassigned) [Compound 4-1, (S or R)-N-(3-cyclopropyl 5,6,7,8-tetrahydroimidazo[1,2-a]pyridin-6-yl)-9-ethyl-8-(2-methylpyrimidin-5-yl)-9H-purin-6-amine], the half-inhibitory concentration (IC50) at PI3Kdelta was 6.9 nM. Also, the “Selectivity versus PI3Kalpha” value on PI3Kalpha is on record as >10.

Consider `CCn1c(-c2cnc(C)nc2)nc2c(NC3CCc4ncc(C5CC5)n4C3)ncnc21` (single isomer, unassigned) [Compound 4-2, (S or R)-N-(3-cyclopropyl-5,6,7,8-tetrahydroimidazo[1,2-a]pyridin-6-yl)-9-ethyl-8-(2-methylpyrimidin-5-yl)-9H-purin-6-amine], for which the half-maximal inhibitory concentration (IC50) at PI3Kdelta is 290 nM. In addition, the “Selectivity versus PI3Kalpha” value at PI3Kalpha is on record as >10.

For `CCn1c(-c2cnc(C)nc2)nc2c(NC3CCc4ncc(C(C)C)n4C3)ncnc21` (single isomer, unassigned) [Compound 4-3, (S or R)-9-ethyl-N-[3-(1-methylethyl)-5,6,7,8-tetrahydroimidazo[1,2-a]pyridin-6-yl]-8-(2-methylpyrimidin-5-yl)-9H-purin-6-amine], the IC50 at PI3Kdelta turned out to be 2.8 nM. At PI3Kalpha, the “Selectivity versus PI3Kalpha” value is on record as >10.

For `CCn1c(-c2cnc(C)nc2)nc2c(NC3CCc4ncc(C(C)C)n4C3)ncnc21` (single isomer, unassigned) [Compound 4-4, (S or R)-9-ethyl-N-[3-(1-methylethyl)-5,6,7,8-tetrahydroimidazo[1,2-a]pyridin-6-yl]-8-(2-methylpyrimidin-5-yl)-9H-purin-6-amine], the half-inhibitory concentration (IC50) on PI3Kdelta stood at 210 nM. Besides, on PI3Kalpha, the “Selectivity versus PI3Kalpha” value is given as >10.

As for `CCn1c(-c2cnc(C)nc2)nc2c(NC3CCc4ncn(C5CC5)c4C3)ncnc21` (single isomer, unassigned) [Compound 5-1, (S or R)-N-(1-cyclopropyl-4,5,6,7-tetrahydro-1H-benzimidazol-6-yl)-9-ethyl-8-(2-methylpyrimidin-5-yl)-9H-purin-6-amine], at PI3Kdelta, the IC50 was 5.5 nM. In addition, on PI3Kalpha, the “Selectivity versus PI3Kalpha” value is listed as >10.

As to `CCn1c(-c2ccc(C(F)(F)F)nc2)nc2c(NC3CCc4ncn(C5CC5)c4C3)ncnc21` (single isomer, unassigned) [Compound 5-2, (S or R)-N-(1-cyclopropyl-4,5,6,7-tetrahydro-1H-benzimidazol-6-yl)-9-ethyl-8-[6-(trifluoromethyl)pyridin-3-yl]-9H-purin-6-amine], on PI3Kdelta, the half-maximal inhibitory concentration (IC50) came out at 3.3 nM. Moreover, at PI3Kalpha, the “Selectivity versus PI3Kalpha” value is listed as >10.

Take `CCn1c(-c2ccc(C(F)(F)F)nc2)nc2c(NC3CCc4ncn(C5CC5)c4C3)ncnc21` (single isomer, unassigned) [Compound 5-3, (S or R)-N-(1-cyclopropyl-4,5,6,7-tetrahydro-1H-benzimidazol-6-yl)-9-ethyl-8-[6-(trifluoromethyl)pyridin-3-yl]-9H-purin-6-amine]: on PI3Kdelta, the IC50 stood at 180 nM. Moreover, on PI3Kalpha, the “Selectivity versus PI3Kalpha” value is >10.

Consider `CCn1c(-c2ccc(C(F)(F)F)cc2)nc2c(NC3CCc4ncn(C5CC5)c4C3)ncnc21` (single isomer, unassigned) [Compound 5-4, (S or R)-N-(1-cyclopropyl-4,5,6,7-tetrahydro-1H-benzimidazol-6-yl)-9-ethyl-8-[4-(trifluoromethyl)phenyl]-9H-purin-6-amine], for which the 50% inhibitory concentration (IC50) on PI3Kdelta was 180 nM. Also, the “Selectivity versus PI3Kalpha” value on PI3Kalpha was >10.
